Source: US20260250318A1, “COMPOSITIONS AND METHODS FOR CROSSING THE BLOOD BRAIN BARRIER” (VOYAGER THERAPEUTICS, INC., priority 2022, published 2026)

test system: brains, heart, liver, muscle, and DRG of the NHPs; assay: Maturation of TTM-001 and TTM-002 capsids, NGS enrichment in NHP tissues; format: in vivo; conditions: NGS fold-enrichment of RNA, NHP brain, relative to AAV9 control
Summary of the method: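 Variants carry mutations within and flanking the loop IV peptide insert: positions 450–466 were triplet-randomized, while positions 449–466 received low-frequency point mutations. The combined pool went into two NHPs, and each peptide was scored by NGS enrichment ratio against AAV9.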

In order of rising “Fold Enrichment relative to AAV9, Brain (NHP)” value:
1. KTINGHDSPHKSGQSVQT  75.748 fold
2. KTTNGHDSPHKSGQNLLT  77.738 fold
3. KTETHSGSPHSKAQNQQT  77.974 fold
4. KTEITSGSPHSKAQNQQT  79.620 fold
5. KTINGGGSPHSKSQNQLT  82.231 fold
6. KTERVSGSPHSKAQNQQT  96.943 fold
7. KTFNGSGSPHSKAQGQQT  99.253 fold
8. KTVNGHDSPHKSGRNQET  102.695 fold
9. KTDNGHDSPHKSRQNQQT  105.312 fold

same assay, conditions: NGS fold-enrichment of matured AAV capsid variants; NHP brain, RNA; relative to AAV9 control

In order of rising “Fold Enrichment relative to AAV9, Brain (NHP)” value:
1. KTINGSGSPHSKAQYQNT  50.099 fold
2. KTINGSGSPHSKARGEQT  54.207 fold
3. KTERVSGSPHSKAQNQQT  96.943 fold

same assay, conditions: NGS fold-enrichment, DRG of NHPs, relative to AAV9 control

In order of rising “Fold Enrichment relative to AAV9, DRG (NHP)” value:
1. KTFNGSGSPHSKAQGQQT  0.000 fold
2. KTDRMSGSPHSKAQNQQT  0.000 fold
3. KTERVSGSPHSKAQNQQT  0.000 fold
4. KTEITSGSPHSKAQNQQT  0.000 fold
5. KTINGGGSPHSKSQNQLT  0.000 fold
6. KTETHSGSPHSKAQNQQT  0.000 fold
7. KTISGSGSPHSKAQYQHT  0.000 fold

same assay, conditions: NGS fold-enrichment, NHP DRG, relative to AAV9 control

In order of rising “Fold Enrichment relative to AAV9, DRG (NHP)” value:
1. KTFNGSGSPHSKAQGQQT  0.000 fold
2. KTDNGHDSPHKSRQNQQT  0.000 fold
3. KTVNGHDSPHKSGRNQET  0.000 fold
4. KTERVSGSPHSKAQNQQT  0.000 fold
5. KTEITSGSPHSKAQNQQT  0.000 fold
6. KTINGGGSPHSKSQNQLT  0.000 fold
7. KTETHSGSPHSKAQNQQT  0.000 fold
8. KTINGHDSPHKSGQSVQT  0.010 fold
9. KTTNGHDSPHKSGQNLLT  0.130 fold

same assay, conditions: NGS fold-enrichment, NHP heart, relative to AAV9 control

In order of falling “Fold Enrichment relative to AAV9, Heart (NHP)” value:
1. KTINGHDSPHKSGQSVQT  6.808 fold
2. KTVNGHDSPHKSGRNQET  0.286 fold
3. KTFNGSGSPHSKAQGQQT  0.208 fold
4. KTEITSGSPHSKAQNQQT  0.163 fold
5. KTINGGGSPHSKSQNQLT  0.070 fold
6. KTETHSGSPHSKAQNQQT  0.067 fold
7. KTTNGHDSPHKSGQNLLT  0.064 fold
8. KTDNGHDSPHKSRQNQQT  0.033 fold
9. KTERVSGSPHSKAQNQQT  0.000 fold

same assay, conditions: NGS fold-enrichment, NHP liver DNA, relative to AAV9 control

In order of falling “Fold Enrichment relative to AAV9, Liver DNA (NHP)” value:
1. KTETHSGSPHSKAQNQQT  0.512 fold
2. KTINGGGSPHSKSQNQLT  0.498 fold
3. KTTNGHDSPHKSGQNLLT  0.326 fold
4. KTERVSGSPHSKAQNQQT  0.144 fold
5. KTFNGSGSPHSKAQGQQT  0.099 fold
6. KTEITSGSPHSKAQNQQT  0.074 fold
7. KTINGHDSPHKSGQSVQT  0.058 fold
8. KTVNGHDSPHKSGRNQET  0.027 fold
9. KTDNGHDSPHKSRQNQQT  0.018 fold

same assay, conditions: NGS fold-enrichment, NHP liver RNA, relative to AAV9 control

In order of falling “Fold Enrichment relative to AAV9, Liver RNA (NHP)” value:
1. KTTNGHDSPHKSGQNLLT  0.424 fold
2. KTEITSGSPHSKAQNQQT  0.332 fold
3. KTINGHDSPHKSGQSVQT  0.165 fold
4. KTFNGSGSPHSKAQGQQT  0.128 fold
5. KTDNGHDSPHKSRQNQQT  0.000 fold
6. KTVNGHDSPHKSGRNQET  0.000 fold
7. KTERVSGSPHSKAQNQQT  0.000 fold
8. KTINGGGSPHSKSQNQLT  0.000 fold
9. KTETHSGSPHSKAQNQQT  0.000 fold

same assay, conditions: NGS fold-enrichment, NHP muscle, relative to AAV9 control

In order of rising “Fold Enrichment relative to AAV9, Muscle (NHP)” value:
1. KTFNGSGSPHSKAQGQQT  0.000 fold
2. KTDNGHDSPHKSRQNQQT  0.000 fold
3. KTVNGHDSPHKSGRNQET  0.000 fold
4. KTERVSGSPHSKAQNQQT  0.000 fold
5. KTEITSGSPHSKAQNQQT  0.000 fold
6. KTINGGGSPHSKSQNQLT  0.000 fold
7. KTETHSGSPHSKAQNQQT  0.000 fold
8. KTINGHDSPHKSGQSVQT  0.000 fold
9. KTTNGHDSPHKSGQNLLT  0.185 fold

same assay, conditions: NGS fold-enrichment, RNA, brain of NHPs, relative to AAV9 control

In order of falling “Fold Enrichment relative to AAV9, Brain (NHP)” value:
1. KTFNGSGSPHSKAQGQQT  99.253 fold
2. KTERVSGSPHSKAQNQQT  96.943 fold
3. KTINGGGSPHSKSQNQLT  82.231 fold
4. KTEITSGSPHSKAQNQQT  79.620 fold
5. KTETHSGSPHSKAQNQQT  77.974 fold
6. KTISGSGSPHSKAQYQHT  66.739 fold
7. KTDRMSGSPHSKAQNQQT  65.143 fold

same assay, conditions: NGS fold-enrichment, heart of NHPs, relative to AAV9 control

In order of falling “Fold Enrichment relative to AAV9, Heart (NHP)” value:
1. KTFNGSGSPHSKAQGQQT  0.208 fold
2. KTEITSGSPHSKAQNQQT  0.163 fold
3. KTINGGGSPHSKSQNQLT  0.070 fold
4. KTETHSGSPHSKAQNQQT  0.067 fold
5. KTDRMSGSPHSKAQNQQT  0.000 fold
6. KTERVSGSPHSKAQNQQT  0.000 fold
7. KTISGSGSPHSKAQYQHT  0.000 fold

same assay, conditions: NGS fold-enrichment, liver DNA of NHPs, relative to AAV9 control

In order of rising “Fold Enrichment relative to AAV9, Liver DNA (NHP)” value:
1. KTEITSGSPHSKAQNQQT  0.074 fold
2. KTFNGSGSPHSKAQGQQT  0.099 fold
3. KTDRMSGSPHSKAQNQQT  0.103 fold
4. KTERVSGSPHSKAQNQQT  0.144 fold
5. KTISGSGSPHSKAQYQHT  0.191 fold
6. KTINGGGSPHSKSQNQLT  0.498 fold
7. KTETHSGSPHSKAQNQQT  0.512 fold

same assay, conditions: NGS fold-enrichment, liver RNA of NHPs, relative to AAV9 control

In order of rising “Fold Enrichment relative to AAV9, Liver RNA (NHP)” value:
1. KTERVSGSPHSKAQNQQT  0.000 fold
2. KTINGGGSPHSKSQNQLT  0.000 fold
3. KTETHSGSPHSKAQNQQT  0.000 fold
4. KTISGSGSPHSKAQYQHT  0.000 fold
5. KTFNGSGSPHSKAQGQQT  0.128 fold
6. KTDRMSGSPHSKAQNQQT  0.332 fold
7. KTEITSGSPHSKAQNQQT  0.332 fold

same assay, conditions: NGS fold-enrichment, muscle of NHPs, relative to AAV9 control

In order of falling “Fold Enrichment relative to AAV9, Muscle (NHP)” value:
1. KTFNGSGSPHSKAQGQQT  0.000 fold
2. KTDRMSGSPHSKAQNQQT  0.000 fold
3. KTERVSGSPHSKAQNQQT  0.000 fold
4. KTEITSGSPHSKAQNQQT  0.000 fold
5. KTINGGGSPHSKSQNQLT  0.000 fold
6. KTETHSGSPHSKAQNQQT  0.000 fold
7. KTISGSGSPHSKAQYQHT  0.000 fold

same assay, conditions: NHP DRG; relative to AAV9 control

In order of rising “Fold Enrichment relative to AAV9, DRG (NHP)” value:
1. KTINGSGSPHSKAQYQNT  0.000 fold
2. KTERVSGSPHSKAQNQQT  0.000 fold
3. KTINGSGSPHSKARGEQT  0.025 fold

same assay, conditions: NHP heart; relative to AAV9 control

In order of falling “Fold Enrichment relative to AAV9, Heart (NHP)” value:
1. KTINGSGSPHSKAQYQNT  0.008 fold
2. KTINGSGSPHSKARGEQT  0.006 fold
3. KTERVSGSPHSKAQNQQT  0.000 fold

same assay, conditions: NHP liver, DNA; relative to AAV9 control

In order of falling “Fold Enrichment relative to AAV9, Liver DNA (NHP)” value:
1. KTINGSGSPHSKARGEQT  0.327 fold
2. KTERVSGSPHSKAQNQQT  0.144 fold
3. KTINGSGSPHSKAQYQNT  0.119 fold

same assay, conditions: NHP liver, RNA; relative to AAV9 control

In order of rising “Fold Enrichment relative to AAV9, Liver RNA (NHP)” value:
1. KTERVSGSPHSKAQNQQT  0.000 fold
2. KTINGSGSPHSKAQYQNT  0.017 fold
3. KTINGSGSPHSKARGEQT  0.309 fold

same assay, conditions: NHP muscle; relative to AAV9 control

In order of falling “Fold Enrichment relative to AAV9, Muscle (NHP)” value:
1. KTINGSGSPHSKARGEQT  0.005 fold
2. KTINGSGSPHSKAQYQNT  0.000 fold
3. KTERVSGSPHSKAQNQQT  0.000 fold

test system: brain; assay: Matured TTM-001 and TTM-002 variants, NGS enrichment in mouse brain; format: in vivo, mice; conditions: NGS fold-enrichment, brain of mice, relative to AAV9 control

In order of rising “Fold Enrichment relative to AAV9, Brain (Mouse)” value:
1. KTETHSGSPHSKAQNQQT  57.287 fold
2. KTISGSGSPHSKAQYQHT  59.822 fold
3. KTEITSGSPHSKAQNQQT  76.686 fold
4. KTFNGSGSPHSKAQGQQT  81.459 fold
5. KTDRMSGSPHSKAQNQQT  104.890 fold
6. KTINGGGSPHSKSQNQLT  126.986 fold
7. KTERVSGSPHSKAQNQQT  135.438 fold

same assay, conditions: NGS fold-enrichment, mouse brain, relative to AAV9 control

In order of falling “Fold Enrichment relative to AAV9, Brain (Mouse)” value:
1. KTERVSGSPHSKAQNQQT  135.438 fold
2. KTINGGGSPHSKSQNQLT  126.986 fold
3. KTFNGSGSPHSKAQGQQT  81.459 fold
4. KTEITSGSPHSKAQNQQT  76.686 fold
5. KTETHSGSPHSKAQNQQT  57.287 fold
6. KTTNGHDSPHKSGQNLLT  15.192 fold
7. KTVNGHDSPHKSGRNQET  11.958 fold
8. KTINGHDSPHKSGQSVQT  9.321 fold
9. KTDNGHDSPHKSRQNQQT  7.931 fold

same assay, conditions: mouse brain; relative to AAV9 control

In order of rising “Fold Enrichment relative to AAV9, Brain (Mouse)” value:
1. KTINGSGSPHSKAQYQNT  71.846 fold
2. KTINGSGSPHSKARGEQT  128.098 fold
3. KTERVSGSPHSKAQNQQT  135.438 fold
